The assay deals with termites. The experiment in a line: Repellency to termites (termites moving through the treated area). Format: in vivo. The following applies: termites do not detect the active ingredient in the treated area and readily move through it, picking up a lethal dose. The text has this: […], and in particular deltamethrin, an α-cyano-pyrethroid, are the preferred active ingredients of the insecticide formulation of this invention and provides the formulation with its insecticidal activity. The International Union of Pure and Applied Chemistry name for Deltamethrin is (S)-α-cyano-3-phenoxybenzyl (1R)-cis-3-(2,2-dibromovinyl)-2,2-dimethylcyclopropane-carboxylate. Deltamethrin is produced by AgrEvo Environmental Health of 95 Chestnut Ridge Road, Montvale, N.J., 07645. The concentration of deltamethrin in the insecticide formulation may range from 0.01 to 2% by weight of the insecticide without propellant, but is preferably from 0.01 to 0.5% by weight of the insecticide without propellant and most preferably from 0.10 to 0.30% by weight of the insecticide without the propellant.

Here are results for 1 compound from patent US7510701B2, “Aerosol-based insecticide compositions and methods of using the same” (Waterbury Companies, Inc., priority 2001, dated 2009).

In the case of `CC1(C)[C@H](C(=O)O[C@H](C#N)c2cccc(Oc3ccccc3)c2)[C@@H]1C=C(Br)Br` [deltamethrin, (S)-α-cyano-3-phenoxybenzyl (1R)-cis-3-(2,2-dibromovinyl)-2,2-dimethylcyclopropane-carboxylate], the Repellency to termites entry is recorded as “non-repellant to termites”.
